Drawing on patent US10647747B2, “Cyclosporin derivatives and uses thereof” (S&T Global Inc., priority 2010, dated 2020), this text covers EC50 for 24 molecules.

This assay has as its system HCV replicon in cell line ET (luc-ubi-neo/ET), Huh7 human hepatoma. Briefly: HCV subgenomic replicon assay, luciferase end point. The class given is cell-based.
[1] abbreviates: Table 12, HCV replicon luciferase, read-out: Antiviral activity EC50.
Setting [2] is: HCV subgenomic replicon, cell line ET (luc-ubi-neo/ET) Huh7, luciferase end point, read-out: Antiviral activity EC50.
The mark [3] stands for this setting: Table 13, HCV replicon luciferase, read-out: Antiviral activity EC50.
[4] abbreviates: Table 16, HCV replicon luciferase, read-out: Antiviral activity EC50.

Read-outs that look alike come from different tables or passages of the source. *1 amine or outer side, *2 acyl side, *3 side chain or, on linkers, in order; H or OH if unused. Where a SMILES comes first, the peptide text is derived from it. [ ]: non-standard residue; d: D form. X12 = COc1ccc(COC(C)(C)CC(C(=O)[*:2])N(C)[*:1])cc1; X10 = CN(C(CC(C)(C)OCc1ccccc1)C(=O)[*:2])[*:1]; X3 = CC=CCC(C)C(O)C(C(=O)[*:2])N(C)[*:1]; X5 = CSCOC(C)(C)CC(C(=O)[*:2])N(C)[*:1]; X7 = CN(C(SCCCN1CCOCC1)C(=O)[*:2])[*:1]; X4 = CCN(CC)CCSC(C(=O)[*:2])N(C)[*:1]; NMeL = CN[CH](CC(C)C)C(=O)O; NMeV = CN[CH](C(=O)O)C(C)C; Abu = CC[CH](N)C(=O)O

For the molecule “(S)-2-(N,N-Diethylamino)ethylthio-Sar]-3-[N-MeIle]-4-cyclosporin”, under setting [1], the EC50 (in general, the concentration needed to bring the measured effect to its halfway point) amounted to 40 nM.
Consider `C/C=C/C[C@@H](C)[C@@H](O)[C@H]1C(=O)N[C@@H](CC)C(=O)N(C)CC(=O)N(C)[C@@H](C(C)C)C(=O)N[C@@H](C(C)C)C(=O)N(C)[C@@H](CC(C)C)C(=O)N[C@@H](C)C(=O)N[C@H](C)C(=O)N(C)[C@@H](CC(C)C)C(=O)N(C)[C@@H](CC(C)C)C(=O)N(C)[C@@H](C(C)C)C(=O)N1C` [[N-MeVal]-4-cyclosporin (SDZ 220-384), N-MeVal-4-Cyclosporin, reference compound], for which, for the setting “Hepatitis C virus, Huh-7, read-out: Antiviral activity EC50, Table 12, HCV replicon luciferase”, the EC50 was 170 nM.
`C/C=C/C[C@@H](C)[C@@H](O)[C@H]1C(=O)N[C@@H](CC)C(=O)N(C)[C@H](CSCCN(CC)CC)C(=O)N(C)[C@@H](CC(C)(C)O)C(=O)N[C@@H](C(C)C)C(=O)N(C)[C@@H](CC(C)C)C(=O)N[C@@H](C)C(=O)N[C@H](C)C(=O)N(C)[C@@H](CC(C)C)C(=O)N(C)[C@@H](CC(C)C)C(=O)N(C)[C@@H](C(C)C)C(=O)N1C` (single isomer, unassigned; isomer b): the EC50 under setting [2] was 90 nM and the EC50 under setting [3] was 30 nM.
On to `CC=CCC(C)C(O)C1C(=O)NC(CC)C(=O)N(C)C(COCCN2CCCCC2)C(=O)N(C)C(CC(C)(C)O)C(=O)NC(C(C)C)C(=O)N(C)C(CC(C)C)C(=O)NC(C)C(=O)NC(C)C(=O)N(C)C(CC(C)C)C(=O)N(C)C(CC(C)C)C(=O)N(C)C(C(C)C)C(=O)N1C` [[(R)-(2-(N-Piperidinyl)ethoxy)methyl-Sar]-3-[(γ-hydroxy)-N-MeLeu]-4-cyclosporin], for which, under setting [2], the EC50 was found to be 140 nM.
As for `CC=CCC(C)C(O)C1C(=O)NC(CC)C(=O)N(C)C(CSCCN(C)CC(C)(C)C)C(=O)N(C)C(CC(C)(C)O)C(=O)NC(C(C)C)C(=O)N(C)C(CC(C)C)C(=O)NC(C)C(=O)NC(C)C(=O)N(C)C(CC(C)C)C(=O)N(C)C(CC(C)C)C(=O)N(C)C(C(C)C)C(=O)N1C` (stereo not drawn), the EC50 under setting [2] was found to be 70 nM.
Regarding `C/C=C/C[C@@H](C)[C@@H](O)[C@H]1C(=O)N[C@@H](CC)C(=O)N(C)[C@H](CSCCCN2CCOCC2)C(=O)N(C)[C@@H](CC(C)(C)O)C(=O)N[C@@H](C(C)C)C(=O)N(C)[C@@H](CC(C)C)C(=O)N[C@@H](C)C(=O)N[C@H](C)C(=O)N(C)[C@@H](CC(C)C)C(=O)N(C)[C@@H](CC(C)C)C(=O)N(C)[C@@H](C(C)C)C(=O)N1C`, the EC50 was 50 nM under setting [2] and 40 nM under setting [4].
Turning to `C/C=C/C[C@@H](C)[C@@H](O)[C@H]1C(=O)N[C@@H](CC)C(=O)N(C)[C@H](COCCCN2CCOCC2)C(=O)N(C)[C@@H](CC(C)(C)O)C(=O)N[C@@H](C(C)C)C(=O)N(C)[C@@H](CC(C)C)C(=O)N[C@@H](C)C(=O)N[C@H](C)C(=O)N(C)[C@@H](CC(C)C)C(=O)N(C)[C@@H](CC(C)C)C(=O)N(C)[C@@H](C(C)C)C(=O)N1C` [[(R)-(3-(N-Morpholino)propoxy)methyl-Sar]-3-[(γ-hydroxy)-N-MeLeu]-4-cyclosporin], under setting [2], the EC50 was 90 nM.
Turning to `CC=CCC(C)C(O)C1C(=O)NC(CC)C(=O)N(C)C(SCCCN2CCOCC2)C(=O)N(C)C(CC(C)(C)OCc2ccc(OC)cc2)C(=O)NC(C(C)C)C(=O)N(C)C(CC(C)C)C(=O)NC(C)C(=O)NC(C)C(=O)N(C)C(CC(C)C)C(=O)N(C)C(CC(C)C)C(=O)N(C)C(C(C)C)C(=O)N1C` (stereo not drawn) (cyclo([X3][Abu][X7][X12]V[NMeL]AA[NMeL][NMeL][NMeV]); configuration not given here), under setting [3], the EC50 was found to be 280 nM.
For `CC=CCC(C)C(O)C1C(=O)NC(CC)C(=O)N(C)C(SCCN(CC(C)C)C(C)C)C(=O)N(C)C(CC(C)C)C(=O)NC(C(C)C)C(=O)N(C)C(CC(C)C)C(=O)NC(C)C(=O)NC(C)C(=O)N(C)C(CC(C)C)C(=O)N(C)C(CC(C)C)C(=O)N(C)C(C(C)C)C(=O)N1C` [(S)-2-(N-iso-Butyl-N-iso-propylamino)ethylthio-Sar]-3-cyclosporin], the EC50 under setting [1] was found to be 480 nM.
As for `CC=CCC(C)C(O)C1C(=O)NC(CC)C(=O)N(C)C(CSCCN(CC)CC(C)(C)C)C(=O)N(C)C(CC(C)(C)O)C(=O)NC(C(C)C)C(=O)N(C)C(CC(C)C)C(=O)NC(C)C(=O)NC(C)C(=O)N(C)C(CC(C)C)C(=O)N(C)C(CC(C)C)C(=O)N(C)C(C(C)C)C(=O)N1C` (stereo not drawn), the EC50 under setting [2] stood at 60 nM.
As to `CC=CCC(C)C(O)C1C(=O)NC(CC)C(=O)N(C)C(SCCCN2CCOCC2)C(=O)N(C)C(CC(C)(C)OCc2ccccc2)C(=O)NC(C(C)C)C(=O)N(C)C(CC(C)C)C(=O)NC(C)C(=O)NC(C)C(=O)N(C)C(CC(C)C)C(=O)N(C)C(CC(C)C)C(=O)N(C)C(C(C)C)C(=O)N1C` [[(S)-(3-(N-Morpholino)propylthio-Sar]-3-[(γ-benzyloxy)-N-MeLeu]-4-cyclosporin] (cyclo([X3][Abu][X7][X10]V[NMeL]AA[NMeL][NMeL][NMeV]); configuration not given here), the EC50 under setting [3] worked out at 280 nM.
Consider `CC=CCC(C)C(O)C1C(=O)NC(CC)C(=O)N(C)C(COCCCN(CC)CC)C(=O)N(C)C(CC(C)(C)O)C(=O)NC(C(C)C)C(=O)N(C)C(CC(C)C)C(=O)NC(C)C(=O)NC(C)C(=O)N(C)C(CC(C)C)C(=O)N(C)C(CC(C)C)C(=O)N(C)C(C(C)C)C(=O)N1C` (stereo not drawn), for which, under setting [2], the EC50 was found to be 180 nM.
Take `CC=CCC(C)C(O)C1C(=O)NC(CC)C(=O)N(C)C(CSCCCCN(CC(C)C)CC(C)C)C(=O)N(C)C(CC(C)(C)O)C(=O)NC(C(C)C)C(=O)N(C)C(CC(C)C)C(=O)NC(C)C(=O)NC(C)C(=O)N(C)C(CC(C)C)C(=O)N(C)C(CC(C)C)C(=O)N(C)C(C(C)C)C(=O)N1C` (stereo not drawn): under setting [4], the EC50 stood at 40 nM.
For the molecule `CC=CCC(C)C(O)C1C(=O)NC(CC)C(=O)N(C)C(CSCCCN2CCN(CC)CC2)C(=O)N(C)C(CC(C)(C)O)C(=O)NC(C(C)C)C(=O)N(C)C(CC(C)C)C(=O)NC(C)C(=O)NC(C)C(=O)N(C)C(CC(C)C)C(=O)N(C)C(CC(C)C)C(=O)N(C)C(C(C)C)C(=O)N1C` (stereo not drawn), the EC50 under setting [4] was determined as 50 nM.
For `C/C=C/C[C@@H](C)[C@@H](O)[C@H]1C(=O)N[C@@H](CC)C(=O)N(C)[C@H](CSCCNCC(C)(C)C)C(=O)N(C)[C@@H](CC(C)(C)O)C(=O)N[C@@H](C(C)C)C(=O)N(C)[C@@H](CC(C)C)C(=O)N[C@@H](C)C(=O)N[C@H](C)C(=O)N(C)[C@@H](CC(C)C)C(=O)N(C)[C@@H](CC(C)C)C(=O)N(C)[C@@H](C(C)C)C(=O)N1C`, the EC50 (Hepatitis C virus, Huh-7, HCV subgenomic replicon, cell line ET (luc-ubi-neo/ET) Huh7, luciferase end point, read-out: Antiviral activity EC50) was 60 nM and the EC50 (Hepatitis C virus, Huh-7, Table 16, HCV replicon luciferase, read-out: Antiviral activity EC50) came to 50 nM.
For `CC=CCC(C)C(O)C1C(=O)NC(CC)C(=O)N(C)C(COCCN2CCCC2)C(=O)N(C)C(CC(C)(C)O)C(=O)NC(C(C)C)C(=O)N(C)C(CC(C)C)C(=O)NC(C)C(=O)NC(C)C(=O)N(C)C(CC(C)C)C(=O)N(C)C(CC(C)C)C(=O)N(C)C(C(C)C)C(=O)N1C` [[(R)-(2-(N-Pyrrolidino)ethoxy)methyl-Sar]-3-[(γ-hydroxy)-N-MeLeu]-4-cyclosporin], under setting [2], the EC50 came to 200 nM.
Regarding `CC=CCC(C)C(O)C1C(=O)NC(CC)C(=O)N(C)C(CSCCN(CC(C)C)CC(C)C)C(=O)N(C)C(CC(C)(C)O)C(=O)NC(C(C)C)C(=O)N(C)C(CC(C)C)C(=O)NC(C)C(=O)NC(C)C(=O)N(C)C(CC(C)C)C(=O)N(C)C(CC(C)C)C(=O)N(C)C(C(C)C)C(=O)N1C` (stereo not drawn), the EC50 under setting [2] stood at 120 nM.
On to `CC=CCC(C)C(O)C1C(=O)NC(CC)C(=O)N(C)C(CSCCN(CC)CC)C(=O)N(C)C(CC(C)(C)OC)C(=O)NC(C(C)C)C(=O)N(C)C(CC(C)C)C(=O)NC(C)C(=O)NC(C)C(=O)N(C)C(CC(C)C)C(=O)N(C)C(CC(C)C)C(=O)N(C)C(C(C)C)C(=O)N1C` (stereo not drawn), for which the EC50 under setting [2] is 90 nM.
For `CC=CCC(C)C(O)C1C(=O)NC(CC)C(=O)N(C)C(CSCCCN2CCN(CC(C)(C)C)CC2)C(=O)N(C)C(CC(C)(C)O)C(=O)NC(C(C)C)C(=O)N(C)C(CC(C)C)C(=O)NC(C)C(=O)NC(C)C(=O)N(C)C(CC(C)C)C(=O)N(C)C(CC(C)C)C(=O)N(C)C(C(C)C)C(=O)N1C` (stereo not drawn), the concentration giving a half-maximal response (EC50) under setting [4] turned out to be 60 nM.
For `C/C=C/C[C@@H](C)[C@@H](O)[C@H]1C(=O)N[C@@H](CC)C(=O)N(C)[C@H](CSCCCCO)C(=O)N(C)[C@@H](CC(C)(C)O)C(=O)N[C@@H](C(C)C)C(=O)N(C)[C@@H](CC(C)C)C(=O)N[C@@H](C)C(=O)N[C@H](C)C(=O)N(C)[C@@H](CC(C)C)C(=O)N(C)[C@@H](CC(C)C)C(=O)N(C)[C@@H](C(C)C)C(=O)N1C` [[(S)-(4-Hydroxylbutylthio)methyl-Sar]-3-[(γ-hydroxy)-N-MeLeu]-4-cyclosporin], the concentration for a half-maximal effect (EC50) under setting [4] came out at 20 nM.
With `CC=CCC(C)C(O)C1C(=O)NC(CC)C(=O)N(C)C(CSCCCNCC(C)(C)C)C(=O)N(C)C(CC(C)(C)O)C(=O)NC(C(C)C)C(=O)N(C)C(CC(C)C)C(=O)NC(C)C(=O)NC(C)C(=O)N(C)C(CC(C)C)C(=O)N(C)C(CC(C)C)C(=O)N(C)C(C(C)C)C(=O)N1C` (stereo not drawn), the EC50 under setting [4] came out at 50 nM.
On to `CC=CCC(C)C(O)C1C(=O)NC(CC)C(=O)N(C)C(SCCN(CC)CC)C(=O)N(C)C(CC(C)(C)OCSC)C(=O)NC(C(C)C)C(=O)N(C)C(CC(C)C)C(=O)NC(C)C(=O)NC(C)C(=O)N(C)C(CC(C)C)C(=O)N(C)C(CC(C)C)C(=O)N(C)C(C(C)C)C(=O)N1C` (stereo not drawn) (cyclo([X3][Abu][X4][X5]V[NMeL]AA[NMeL][NMeL][NMeV]); configuration not given here), for which the EC50 under setting [1] was found to be 110 nM.
With `CC=CCC(C)C(O)C1C(=O)NC(CC)C(=O)N(C)C(SCCNCC(C)(C)C)C(=O)N(C)C(CC(C)C)C(=O)NC(C(C)C)C(=O)N(C)C(CC(C)C)C(=O)NC(C)C(=O)NC(C)C(=O)N(C)C(CC(C)C)C(=O)N(C)C(CC(C)C)C(=O)N(C)C(C(C)C)C(=O)N1C` [(S)-2-(N-neo-Pentylamino)ethylthio-Sar]-3-cyclosporin], under setting [1], the EC50 was determined as 230 nM.
For the molecule `CC=CCC(C)C(O)C1C(=O)NC(CC)C(=O)N(C)C(COCCN(C)C)C(=O)N(C)C(CC(C)(C)O)C(=O)NC(C(C)C)C(=O)N(C)C(CC(C)C)C(=O)NC(C)C(=O)NC(C)C(=O)N(C)C(CC(C)C)C(=O)N(C)C(CC(C)C)C(=O)N(C)C(C(C)C)C(=O)N1C` (stereo not drawn), the EC50 under setting [2] was found to be 240 nM.
